According to patent US11197918B2, “Pharmaceutical composition for preventing or treating neovascular disease, containing collagen type i and pigment epithelium derived factor peptide as active ingredients” (NexThera Co., Ltd., priority 2017, dated 2021):

Legend:
HUVECs tube formation = assay: Stability confirmation by tube formation assay after storage; type: physicochemical, human; conditions: stored for 6 weeks at 4° C. and room temperature (FIG. 11)
Experimental: In order to confirm the stability of the mixture of PEDF 34-mer peptide and collagen, the mixture of PEDF 34-mer peptide and collagen and the PEDF 34-mer peptide were stored for 6 weeks at 4° C. and room temperature (RT), and stability of PEDF 34-mer peptide and PEDF 34-mer peptide and collagen mixture, which were prepared immediately before the experiment, were compared.
Tube formation assay for each mixture was performed to confirm angiogenesis inhibitory ability.

[1] = test system: choroidal neovascularization (CNV); assay: Choroidal neovascularization model with complete neovascularization, treatment on day 7 after laser irradiation; type: in vivo, C57BL/6 mice; conditions: 0.1% collagen type I, 25 pmol peptide or their mixture, administered once on day 7 after laser irradiation (FIG. 7B, 7C)
[2] = test system: choroidal neovascularization (CNV); assay: Laser-induced choroidal neovascularization model, intravitreal injection immediately after laser irradiation; type: in vivo, C57BL/6 mice; conditions: intraocular injection for 5 days, day 14 after laser (FIG. 2A, 2B)
Experimental: 5-8 week old C57BL/6 mice were purchased from Orient and used.
The pupils of each mouse were dilated using 5 mg/mL Tropicamide (santen pharmaceutical co. ltd, Kita-ku, Osaka, Japan) eye drops and 100 mg/kg ketamine (Huons, SEONGNAM-SI, GYEONGGI-DO, Korea) and 10 mg/kg xylazine (BAYER, Leverkusen, Germany) were anesthetized by intraperitoneal injection.
After anesthesia, the mice were fixed to the mouse holder, and a laser beam of 150 to 210 mW intensity was irradiated for 0.1 second using a slit lamp microscope laser system to prepare four lesions of 50-100 μm size in the retinas of mice at 3, 6, 9 and 12 o'clock. At this time, droplets should be formed by the laser beam, which are important for breaking Bruch's membranes to form neovascularization (CNV). […]
The stained eyeball was separated and placed in 10% formalin to fix for 30 minutes, and then muscles, corneas, irises, lenses and vitreous bodies around the eyeball were carefully removed not to hurt the eye's retina fixed on the microscope and four sections were cut at 3, 6, 9, and 12 o'clock, covered with coverslip, the lesion was photographed using a fluorescence microscope, and the size was measured to compare with the control group.

HUVECs cells = assay: Tube formation assay in VEGF-165-induced HUVECs; type: cell-based, human
Experimental: 48-well plates were coated with 200 μl Matrigel and maintained at 37° C. for 1 hour, and HUVECs cells were stained with Calcein-AM for 15 minutes at 37° C.
The stained HUVECs cells were dispensed into 2×10^4 cells in each well of a Matrigel-coated plate and treated with recombinant human VEGF-165 into each well to induce the tube formation of the cells.
Thereafter, collagen type I (collagen type I alpha 1, partial [Sus scrofa] GenBank: AAR03833.1) and 34-mer pigment epithelium derived factor peptide (DPFFKVPVNKLAAAVSNFGYDLYRVRSSTSPTTN: SEQ ID NO: 1) were treated separately, respectively, or mixed together and treated and incubated for 4 hours at 37° C., and the degree of tube formation of each group was confirmed.
The degree of tube formation was confirmed by taking pictures with a Micromanipulator (Olympus) and compared by measuring the length of the tube.

In the case of “DPFFKVPVNKLAAAVSNFGYDLYRVRSSTSPTTN (DPFFKVPVNKLAAAVSNFGYDLYRVRSSTSPTTN; pigemented epithelium derived factor peptide)”, the “stability: tube formation inhibition after storage compared with preparation made immediately before the experiment” value (HUVECs tube formation) is reported as “did not inhibit the tube formation”, the angiogenesis inhibitory effect [1] is reported as “almost no angiogenesis inhibitory effect” and the “size of neovascularization (CNV)” value ([2]; peptide 10 pmol) is reported as “increase neovascularization (CNV) again”. The “size of neovascularization (CNV)” value ([2]; peptide 0.01, 0.5 and 0.1 pmol) was “significantly reduced”, the “inhibitory effect on tube formation” value (HUVECs cells; carrier comparison: 0.1% collagen type I, hyaluronic acid or gelatin, alone or with peptide 0.02-500 pmol/ml (FIG. 4)) was “same as that of the 34-mer pigment epithelium derived factor peptide and collagen type I mixture administration group” and the “inhibitory effect on tube formation” value (HUVECs cells; peptide alone 0.2 pg/ml, VEGF-165-induced HUVECs, 4 hours (FIG. 1A, 1B)) was “greatest inhibitory effect on tube formation”. The tube formation (HUVECs cells; peptide alone at higher concentrations (up to 5 pmol/ml), 4 hours (FIG. 1A, 1B)) was “the tube formation increased again” and the tube formation (HUVECs cells; peptide at high concentration, alone or mixed with 0.05 or 0.1% collagen type I (FIG. 3)) was “the tube formation increased rapidly”.
